Patent US11505811B2, “Method for the preparation of 2,4-dihydroxybutyrate” (ADISSEO FRANCE S.A.S., priority 2012, dated 2022)
Where a chain is given by its changes, count along the chain named. Where two headings read alike, the source gives them in different places.

Assays:
Format in all cases: biochemical
[1] = biological target: T1, Escherichia coli (L)-malate dehydrogenase Ec-Mdh, wild type, SEQ ID NO: 2 (Escherichia coli, UniProt P61889); assay: OHB/oxaloacetate reductase assay (NADH oxidation at 340 nm), Ec-Mdh wild type; settings: Table 6; up to 50 mM OHB; pH 7, 37° C., 0.25 mM NADH
T1 construct: made in house; host or cells: E. coli BL21 (DE3) star
T1 sequence (P61889 1-312): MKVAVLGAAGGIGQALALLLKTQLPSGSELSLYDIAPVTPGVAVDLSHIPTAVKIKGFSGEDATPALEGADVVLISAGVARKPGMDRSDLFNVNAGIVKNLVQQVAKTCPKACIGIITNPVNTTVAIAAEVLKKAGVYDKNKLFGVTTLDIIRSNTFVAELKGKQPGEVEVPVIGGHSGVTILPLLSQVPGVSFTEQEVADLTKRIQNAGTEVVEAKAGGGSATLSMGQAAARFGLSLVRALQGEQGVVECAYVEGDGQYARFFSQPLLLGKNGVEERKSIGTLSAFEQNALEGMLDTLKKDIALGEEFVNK
From the text: The genes coding for (L)-malate dehydrogenase in Escherichia coli, Ec-mdh (SEQ ID NO: 1), (D)-lactate dehydrogenase in E. coli, Ec-ldhA (SEQ ID NO: 3), (L)-lactate dehydrogenase of Lactococcus lactis, Ll-ldhA (SEQ ID NO: 5), (L)-lactate dehydrogenase of Bacillus subtilis, Bs-ldh (SEQ ID NO: 7), (L)-lactate dehydrogenase of Geobacillus stearothermophilus, Gs-ldh (SEQ ID NO: 9), the two isoforms of the (L)-lactate dehydrogenase of Oryctalagus cuniculus, Oc-ldhA (SEQ ID NO: 11 and SEQ ID NO: 13), were amplified by PCR using the high-fidelity polymerase Phusion™ (Fermentas) and the primers listed in Table 1. Genomic DNAs of E. coli MG1655, L. lactis IL1403, and B. subtilis strain 168 were used as the template. The genes Oc-ldhA, and Gs-ldh were codon-optimized for expression in E. coli and synthesized by MWG Eurofins. The primers introduced restriction sites (Table 1) upstream of the start codon and downstream of the stop codon, respectively, facilitating the ligation of the digested PCR products into the corresponding sites of the pET28a+ (Novagen) expression vector using T4 DNA ligase (Fermentas). Ligation products were transformed into E. coli DH5a cells (NEB). […]

[2] = biological target: T2, Escherichia coli malate dehydrogenase Ec-Mdh variant R81A, SEQ ID No. 102 (Escherichia coli, UniProt P61889, R81A); assay: OHB/oxaloacetate reductase assay, Ec-Mdh R81A; settings: pH 7, 37° C.
T2 sequence (P61889 with tags, fused parts or gaps R81A): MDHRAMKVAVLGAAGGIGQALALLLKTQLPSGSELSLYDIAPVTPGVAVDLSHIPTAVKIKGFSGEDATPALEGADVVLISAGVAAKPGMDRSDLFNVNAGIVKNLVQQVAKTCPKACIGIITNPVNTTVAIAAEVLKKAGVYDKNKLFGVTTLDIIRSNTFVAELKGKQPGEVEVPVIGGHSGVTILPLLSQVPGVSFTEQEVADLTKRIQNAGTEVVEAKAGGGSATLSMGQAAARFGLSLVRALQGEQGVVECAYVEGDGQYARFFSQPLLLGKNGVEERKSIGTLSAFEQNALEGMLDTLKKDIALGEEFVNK
Procedure: (§1) Enzymatic assays: The reaction mixture contained 60 mM Hepes (pH 7), 50 mM potassium chloride, 5 mM MgCl2, 0.25 mM NADH, (optionally 5 mM fructose-1,6-bisphosphate) (all products from Sigma), and appropriate amounts of purified malate or lactate dehydrogenase or cell extract. Reactions were started by adding appropriate amounts of 2-oxo-4-hydroxybutyrate (OHB), pyruvate, or oxaloacetate (OAA). Enzymatic assays were carried out at 37° C. in 96-well flat bottomed microtiter plates in a final volume of 250 μL. The reactions were followed by the characteristic absorption of NADH at 340 nm (εNADH=6.22 mM^−1 cm^−1) in a microplate reader (BioRad 680XR).
(§2) Site-directed mutagenesis of the mdh gene from E. coli was carried out as described in Example 2 using the primers listed in Table 5. Plasmid pET28-Ec-mdh was used as the template.
(§3) Mutant enzymes were expressed, purified and tested for OHB and oxaloacetate reductase activity as described in Example 1. […] The mutation R81A in Ec-Mdh was combined with additional changes in the protein sequence.

[3] = biological target: T3, Escherichia coli malate dehydrogenase Ec-Mdh variant R81A M85Q, SEQ ID No. 104 (Escherichia coli, UniProt P61889, M85Q/R81A); assay: OHB/oxaloacetate reductase assay, Ec-Mdh R81A M85Q; settings: pH 7, 37° C.
T3 sequence (P61889 1-312 R81A/M85Q): T1 sequence (P61889 1-312) with R81A, M85Q
Procedure: as §1, §2, §3

[4] = biological target: T4, Escherichia coli malate dehydrogenase Ec-Mdh variant R81A M85E, SEQ ID No. 106 (Escherichia coli, UniProt P61889, M85E/R81A); assay: OHB/oxaloacetate reductase assay, Ec-Mdh R81A M85E; settings: pH 7, 37° C.
T4 sequence (P61889 1-312 R81A/M85E): T1 sequence (P61889 1-312) with R81A, M85E
Procedure: as §1, §2, §3

[5] = biological target: T5, Escherichia coli malate dehydrogenase Ec-Mdh variant R81A M85E I12V, SEQ ID No. 110 (Escherichia coli, UniProt P61889, I12V/M85E/R81A); assay: OHB/oxaloacetate reductase assay, Ec-Mdh R81A M85E I12V; settings: pH 7, 37° C.
T5 sequence (P61889 1-312 I12V/R81A/M85E): T1 sequence (P61889 1-312) with I12V, R81A, M85E
Procedure: as §1, §2, §3

[6] = biological target: T6, Escherichia coli malate dehydrogenase Ec-Mdh variant R81A G179D, SEQ ID No. 112 (Escherichia coli, UniProt P61889, G179D/R81A); assay: OHB/oxaloacetate reductase assay, Ec-Mdh R81A G179D; settings: pH 7, 37° C.
T6 sequence (P61889 1-312 R81A/G179D): T1 sequence (P61889 1-312) with R81A, G179D
Procedure: as §1, §2, §3

[7] = biological target: T7, Escherichia coli malate dehydrogenase Ec-Mdh variant R81A D86S, SEQ ID No. 1114 (Escherichia coli, UniProt P61889, D86S/R81A); assay: OHB/oxaloacetate reductase assay, Ec-Mdh R81A D86S; settings: pH 7, 37° C.
T7 sequence (P61889 1-312 R81A/D86S): T1 sequence (P61889 1-312) with R81A, D86S
Procedure: as §1, §2, §3

[8] = biological target: T8, Escherichia coli malate dehydrogenase Ec-Mdh variant R81A 112V, SEQ ID No. 115 (Escherichia coli, UniProt P61889, I12V/R81A); assay: OHB/oxaloacetate reductase assay, Ec-Mdh R81A 112V; settings: pH 7, 37° C.
T8 sequence (P61889 1-312 I12V/R81A): T1 sequence (P61889 1-312) with I12V, R81A
Procedure: as §1, §2, §3

[9] = biological target: T9, Escherichia coli malate dehydrogenase Ec-Mdh variant R81A M85Q I12V, SEQ ID No. 108 (Escherichia coli, UniProt P61889, I12V/M85Q/R81A); assay: OHB/oxaloacetate reductase assay, Ec-Mdh R81A M85Q I12V; settings: up to 0.5 mM oxaloacetate; pH 7, 37° C.; read-out: Km (OAA)
T9 sequence (P61889 1-312 I12V/R81A/M85Q): T1 sequence (P61889 1-312) with I12V, R81A, M85Q
Procedure: as §1, §2, §3

[10] = up to 50 mM OHB, read-out: Km (OHB)
[11] = up to 0.5 mM oxaloacetate, read-out: Km (OAA)

Structure (SMILES)	Km [1] [mM]	Km [2, 10] [mM]	Km [3, 10] [mM]	Km [4, 10] [mM]	Km [5, 10] [mM]	Km [6, 10] [mM]	Km [7, 10] [mM]	Km [8, 10] [mM]	Km [2, 11] [mM]	Km [3, 11] [mM]	Km [4, 11] [mM]	Km [9] [mM]	Km [5, 11] [mM]	Km [6, 11] [mM]	Km [7, 11] [mM]	Km [8, 11] [mM]
O=C(O)C(=O)CCO [OHB, 2-oxo-4-hydroxybutyrate]	> 50	> 50	> 50	> 50	> 50	> 50	> 50	> 50	–	–	–	–	–	–	–	–
O=C(O)CC(=O)C(=O)O [oxaloacetate, reference compound]	–	–	–	–	–	–	–	–	> 0.5	> 0.5	> 0.5	> 0.5	> 0.5	> 0.5	> 0.5	> 0.5
